Results: patent US6750028B1, “Anti-fibrotic agent assay” (Ethicon, Inc, priority 1996, dated 2004)

Tests used:
TGF-β1 activation [1] = test: Co-culture of BAEC and BASMC, TGF-β1 in conditioned media by ELISA; format: cell-based, bovine
Procedure: For co-culture experiments, BAECs and BASMCs were seeded separately in 35 mm dishes at a density of 40×10^4 cells in DMEM/10% CS (Calf Serum) or 3.2×10^5 BAECs and 0.8×10^5 BASMCs in the same 35-mm dishes. After cell attachment (approximately 2 h) the cells were rinsed with PBS and incubated in 1 ml of DMEM/0.1% BSA for 6 h to produce conditioned media. Conditioned Media were centrifuged and used in the ELISA assay.
(§1) Each measurement was performed in duplicates.
Preliminary experiments were carried out with the aim to adopt the published co-culture system for screening anti-fibrotic agents.

TGF-β1 activation [2] = test: TGF-β1 activation by HMB-2 melanoma cells (ELISA); format: cell-based, human
Procedure: as §1
(§2) It has been shown that cancer cells, such as human breast cancer, some melanoma cell lines and prostate adenocarcinoma cell lines, constitutively release biologically active TGF-β1 into the culture medium (24, 25, 29). Since the homotypic cell culture system would be of advantage due to its simplicity, an attempt was made to implement cancer cells as a method for TGF-β1 activation.

TGF-β1 mRNA [3] = test: TGF-β1 mRNA in human neonatal fibroblasts by RT-PCR; format: cell-based
Procedure: (§3) Human neonatal fibroblasts were seeded in 100 mm dishes at 1×10^6 cells/dish. […] In addition, cells were treated with two concentrations of Mannose 1-Phosphate (M1P) (100 and 200 μM) for 24 and 48 h. […] Each treatment was run in duplicates and repetitive analyses were performed.
(§4) The procedure used to transcribe the total RNA was described in detail previously (28). Briefly, the reaction was carried out in a total volume of 25 μl containing 1× reverse transcriptase buffer (50 mM Tris-HCl, pH 8.3, 75 mM KCl, 3 mM MgCl2), 10 mM DTT (Dithiothreitol), 2.5 mM each of dNTPs (Deoxynucleotides), 100 μg/ml of acetylated BSA, 4 units of rRNasin (ribonuclease inhibitor), 200 units of SuperScript™ RNase H^−Reverse Transcriptase, 0.1 μg of oligo (dT)12-18 and 1 μg of total RNA. Incubation was carried out for 1 h at 42° C. and was terminated by the addition of an equal volume of cold water.
(§5) A portion of the first strand cDNA reaction was used in PCR, which was carried out in 25 μl containing 16 mM Tris-HCl, pH 8.3, 50 mM KCl, 1.5 mM MgCl2, 0.01% gelatin, 200 μM of each dNTPs, 1 μM each sense and antisense oligonucleotides and 2.5 units of AmpliTaq DNA polymerase. Amplification was carried out for 35 cycles. Each cycle consisted of: denaturation 1 min at 95° C.; annealing at 55° C. (optimal for the pair of oligonucleotides used) for 2 min; and elongation at 72° C., 3 min. For the final cycle elongation was 7 min. Reaction products were separated by 2% agarose gel electrophoresis and were visualized by ethidium bromide staining. Sizes were determined using Q X 174 DNA/Hae III markers. Restriction digests were performed in order to confirm PCR product specificity. Densitometry was used for quantitative analysis of the ethidium bromide stained gels.

M6P/IGF-II receptor mRNA = M6P/IGF-II receptor mRNA in human neonatal fibroblasts by RT-PCR; format: cell-based
Procedure: as §3, §4, §5

M6P/IGF-II receptors = test: M6P/IGF-II receptor levels within wounds treated with M6P; format: in vivo; conditions: 3 days post-wounding
TGF-β1 activation [4] = test: TGF-β1 activation by Bowes melanoma cells (ELISA); format: cell-based, human
Procedure: as §1, §2

TGF-β1 activation [5] = test: TGF-β1 activation by prostate adenocarcinoma cells (ELISA); format: cell-based, human
Procedure: as §1, §2

[6] = tested on: TGF-β receptor type I mRNA; test: TGF-β receptor type I mRNA in human neonatal fibroblasts by RT-PCR; format: cell-based; conditions: M6P, time course of treatment (24 and 48 h)
Procedure: as §3, §4
A portion of the first strand cDNA reaction was used in PCR, which was carried out in 25 μl containing 16 mM Tris-HCl, pH 8.3, 50 mM KCl, 1.5 mM MgCl2, 0.01% gelatin, 200 μM of each dNTPs, 1 μM each sense and antisense oligonucleotides and 2.5 units of AmpliTaq DNA polymerase. Amplification was carried out for 35 cycles. […] Sizes were determined using Q X 174 DNA/Hae III markers. […] Densitometry was used for quantitative analysis of the ethidium bromide stained gels.

TGF-β1 activation [7] = test: BAEC treated with retinoic acid, TGF-β1 in conditioned media by ELISA; format: cell-based, bovine
Procedure: The procedures for preparation of conditioned media were described previously (22). Briefly, for the retinoid experiment, BAEC cells were grown to confluency in 35 mm dishes. The cultures were rinsed with PBS (Phosphate Buffered Saline), and incubated in 1 ml of serum-free DMEM containing 0.1% of BSA and retinoic acid (10 μM) or vehicle (0.5% ethanol). The incubation was carried out for 24 h. The medium was aspirated, the cells were washed with PBS and then incubated in 1 ml of DMEM/0.1% BSA for an additional 12 h to produce conditioned medium. Conditioned media were centrifuged and used in the ELISA assay for TGF-β1 evaluation.
Each measurement was performed in duplicates. […]

TGF-β1 mRNA [8] = test: mRNA for TGF-β1 in macrophages by Northern blot; format: cell-based, mouse; conditions: LPS alone or LPS with M6P or DCA, FIG. 2
Procedure: The cells were washed with PBS, followed by addition of the extraction buffer provided with the kit (RNeasy RNA extraction kit). The lysed cells were scraped from the dish and collected in microtubes. Samples were either frozen at −70° C. before analysis or directly assessed following manufacturer protocol. Absorbance at 260 nm and 280 nm was measured and the integrity of RNA was evaluated by denaturing formaldehyde agarose gels stained with ethidium bromide.
Northern blot analysis was carried out as described previously (27). Briefly, total RNA samples (5 μg) were diluted in formaldehyde-MOPS buffer and subjected to electrophoresis in a denaturing 1.2% Sea Kem GTG agarose gel along with the RNA size markers. RNA was transferred to a nitrocellulose membrane by capillary transfer. The blots were prehybridized for 3 h at 42° C. in a solution containing 10% dextran sulfate, 2×Denhardt's solution, 50% formamide, 5×SSPE (0.75 M Sodium chloride, 0.05 M sodium phosphate, 0.005 M ethylenediaminetetraacetic acid)/0.1% SDS, and 250 μg/ml of sheared salmon testis DNA. Hybridization solution was essentially the same except that ^32P dCTP-labeled DNA probe and 150 μg/ml of salmon testis DNA were included. The hybridization was carried out for 16 h at 42° C. […]

TGF-β1 activation [9] = test: Macrophage activation assay (IC-21 macrophages, LPS, fetal fibroblast conditioned media, ELISA); format: cell-based, mouse
Procedure: (§6) Cultured macrophages were lifted from the dish with 3 ml of PBS. The PBS was balanced with 15 ml of RPMI-1640 containing 10% FBS. The cells were counted and then seeded in 100 mm plates at 1×10^6 cells/dish. When the cultured macrophages reached approximately 70% confluency (2-3 days) they were washed with PBS and RPMI-1640 medium containing 5% FBS and 10 ng/ml LPS was applied (FIG. 1). After 24 h of activation with LPS the cells were washed gently with PBS. At this point conditioned medium from confluent fetal dermal fibroblasts was collected and 5 ml was distributed into each dish containing macrophages. The cells were incubated for an additional 24 h, the media were collected, spun down at 600×g for 10 min and stored at 4° C. before TGF-β1 evaluation by ELISA. Each condition was done in duplicate. The cells, washed with PBS, were harvested for total RNA extraction.
Fetal dermal fibroblasts were seeded in 100 mm dishes at 1×10^6 cell/dish. The cells were grown to confluency (2-3 days). The cultures were washed with PBS and fresh medium, either DMEM supplemented with 10% FBS or AIM-V medium (a serum free medium) for serum-free conditions, was applied for 24 h (FIG. 1). The medium was collected and combined in order to obtain a homogenous pool of latent TGF-β1. The collection of the medium was done just prior to application in the macrophage assay.
as §1

TGF-β1 activation [10] = test: Activation of rHLTGF-β1 by macrophages; format: cell-based, mouse; conditions: 200 pg/ml rHLTGF-β1
Procedure: as §6, §1
The substitution in the media with purified recombinant latent form of TGF-β1 was tested in an attempt to determine the requirement for fibroblast conditioned media in the macrophage assay. Only 3.3% of rHLTGF-β1 was activated by macrophages when the treatment with LPS was omitted (Table 5).

[11] = BAEC + RA (10 μM) + test agent 100 μM
[12] = BAEC + RA (10 μM), conditioned medium

In the case of `O=C[C@@H](O)[C@@H](O)[C@H](O)[C@H](O)COP(=O)(O)O` [M6P, D-mannose 6-phosphate], the “inhibition of TGF-β1 activation, in words” value (TGF-β1 activation [1]; 100 μM) is reported as “did not significantly inhibit”, the “% Active” value (TGF-β1 activation [1]; Co-culture + M6P 100 μM) is reported as 7.5% and the “Active TGF-β1” value (TGF-β1 activation [1]; Co-culture + M6P 100 μM) is reported as 58 pg/mL. The “Total TGF-β1” value (TGF-β1 activation [1]; Co-culture + M6P 100 μM) was 770 pg/mL, the “% ACTIVE TGF-β1 (STD)” value (TGF-β1 activation [2]; HMB-2, M6P 100 μM, DCA 100 μM, antibody 1:1500 dil) was 108.4% and the “effect on TGF-β1 activation, in words” value (TGF-β1 activation [2]; melanoma cells (HMB-2)) was “no effect”. The “expression of TGF-β1 cDNA (RT-PCR)” value (TGF-β1 mRNA [3]; M6P 1 μM, 24 h) was 80.9, the “expression of TGF-β1 cDNA (RT-PCR)” value (TGF-β1 mRNA [3]; M6P 1 μM, 48 h) was 86.3 and the “expression of TGF-β1 cDNA (RT-PCR)” value (TGF-β1 mRNA [3]; M6P 10 μM, 24 h) was 116.2. For the same molecule, the “expression of TGF-β1 cDNA (RT-PCR)” value (TGF-β1 mRNA [3]; M6P 10 μM, 48 h) was 78.8, the “expression of TGF-β1 cDNA (RT-PCR)” value (TGF-β1 mRNA [3]; M6P 50 μM, 24 h) was 119.3 and the “expression of TGF-β1 cDNA (RT-PCR)” value (TGF-β1 mRNA [3]; M6P 50 μM, 48 h) was 75. For the same molecule, the “expression of TGF-β1 cDNA (RT-PCR)” value (TGF-β1 mRNA [3]; M6P 100 μM, 24 h) was 95.6, the “expression of TGF-β1 cDNA (RT-PCR)” value (TGF-β1 mRNA [3]; M6P 200 μM, 24 h) was 62.5 and the “expression of TGF-β1 cDNA (RT-PCR)” value (TGF-β1 mRNA [3]; M6P 200 μM, 48 h) was 28.8. For the same molecule, the “expression of mRNA for M6P/IGF-II receptor, in words” value (M6P/IGF-II receptor mRNA; 1-100 μM, 24 h) was “not affected”, the “expression of mRNA for M6P/IGF-II receptor, in words” value (M6P/IGF-II receptor mRNA; 50-200 μM, 48 h) was “decrease” and the “levels of the M6P/IGF-II receptors within the wounds, in words” value (M6P/IGF-II receptors) was “downregulated”. For the same molecule, the “% ACTIVE TGF-β1 (STD)” value (TGF-β1 activation [4]; BOWES, M6P 100 μM, DCA 100 μM, antibody 1:1500 dil) was 113.5%, the “effect on TGF-β1 activation, in words” value (TGF-β1 activation [4]; melanoma cells (Bowes)) was “no effect” and the “% ACTIVE TGF-β1 (STD)” value (TGF-β1 activation [5]; Adenocarcinoma cells, M6P 100 μM, cystamine 100 μM, antibody 1:1500 dil) was 91.8%. The “effect on TGF-β1 activation, in words” value (TGF-β1 activation [5]; prostate cancer cells) was “no effect”, the “level of TGF-β receptor type I mRNA, in words” value [6] was “unchanged” and the “inhibitory effect on TGF-β1 activation, in words” value (TGF-β1 activation [7]; 100 μM, BAEC treated with RA) was “no significant inhibitory effects”. The “% Active” value (TGF-β1 activation [7]; [11]) was 8.1%, the “Active TGF-β1” value (TGF-β1 activation [7]; [11]) was 287 pg/mL and the “Total TGF-β1” value (TGF-β1 activation [7]; [11]) was 3544 pg/mL. For the same molecule, the “levels of mRNA for TGF-β1, in words” value (TGF-β1 mRNA [8]) was “remained the same”.
In the case of `Cl.Cl.NCCCCN` [Putrescine, putrescine-dihydrochloride], the “active TGF-β1, % Control (STD)” value (TGF-β1 activation [9]; 100 μM) is reported as 80.6%.
For `CC1=C(/C=C/C(C)=C/C=C/C(C)=C/C(=O)O)C(C)(C)CCC1` [RA, all-trans retinoic acid], the “% Active” value (TGF-β1 activation [7]; BAEC + RA (10 μM)) was 10.3%, the “Active TGF-β1” value (TGF-β1 activation [7]; [12]) was 276 pg/mL and the “Total TGF-β1” value (TGF-β1 activation [7]; [12]) was 2667 pg/mL.
In the case of IGF-II: Recombinant human IGF-II, the “effect on TGF-β1 activation, in words” value (TGF-β1 activation [9]) is reported as “inhibited TGF-β1 activation”, the “active TGF-β1, % Control (STD)” value (TGF-β1 activation [9]; IGF-II 15 nM) is reported as 65.1% and the “active TGF-β1, % Control (STD)” value (TGF-β1 activation [9]; IGF-II 30 nM) is reported as 54.3%. For the same molecule, the “effect on TGF-β1 activation, in words” value (TGF-β1 activation [9]; IGF-II 15 and 30 nM) was “dose-dependent inhibitory effect”.
“rHLTGF-β1: Recombinant human latent TGF-β1” was tested, and the “% Active” value (TGF-β1 activation [10]; LPS) was 12.2%, the “Active TGF-β1” value (TGF-β1 activation [10]; LPS) was 48.8 (3.5) pg/ml and the “Total TGF-β1” value (TGF-β1 activation [10]; LPS) was 399 (44.5) pg/ml. The “% Active” value (TGF-β1 activation [10]; No LPS) was 3.3%, the “Active TGF-β1” value (TGF-β1 activation [10]; No LPS) was 10.9 (7.2) pg/ml and the “Total TGF-β1” value (TGF-β1 activation [10]; No LPS) was 324 (7.2) pg/ml.
